# ChEMBL document CHEMBL4190187, “Discovery of pyrazolopyrimidine derivatives as novel inhibitors of ataxia telangiectasia and rad3 related protein (ATR)” (Bioorg Med Chem Lett, 2017)
# What was measured:
# [1] = molecular target: Serine/threonine-protein kinase PAK 4 (Homo sapiens) (UniProt O96013); experiment: Inhibition of recombinant human PAK4 (295 to end residues) at 1 uM using myelin basic protein as substrate after 40 mins in presence of [gamma-33P]ATP by scintillation counting method
# [2] = molecular target: Dual specificity mitogen-activated protein kinase kinase 1 (Homo sapiens) (UniProt Q02750); experiment: Inhibition of recombinant full-length human MEK1 at 1 uM using inactive MAPK2 as substrate after 40 mins in presence of [gamma-33P]ATP by scintillation counting method
# Dual specificity mitogen-activated protein kinase kinase 1 (Homo sapiens), sequence (Q02750 whole entry): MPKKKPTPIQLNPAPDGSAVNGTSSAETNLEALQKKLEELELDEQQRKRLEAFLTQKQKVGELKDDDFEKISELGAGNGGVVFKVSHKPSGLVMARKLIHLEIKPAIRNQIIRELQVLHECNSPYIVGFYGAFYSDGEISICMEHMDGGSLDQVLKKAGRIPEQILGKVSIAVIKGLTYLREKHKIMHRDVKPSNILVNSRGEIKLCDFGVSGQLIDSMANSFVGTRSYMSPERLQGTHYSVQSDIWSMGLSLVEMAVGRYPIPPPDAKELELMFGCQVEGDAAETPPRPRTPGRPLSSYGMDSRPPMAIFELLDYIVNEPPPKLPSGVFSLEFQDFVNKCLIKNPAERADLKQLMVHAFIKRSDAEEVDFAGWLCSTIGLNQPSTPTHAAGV
# [3] = molecular target: 5'-AMP-activated protein kinase catalytic subunit alpha-2 (Homo sapiens) (UniProt P54646); experiment: Inhibition of recombinant full-length human AMPKalpha2 at 1 uM using AMARAASAAALARRR as substrate after 40 mins in presence of [gamma-33P]ATP by scintillation counting method
# 5'-AMP-activated protein kinase catalytic subunit alpha-2 (Homo sapiens), sequence (P54646 whole entry, looked up): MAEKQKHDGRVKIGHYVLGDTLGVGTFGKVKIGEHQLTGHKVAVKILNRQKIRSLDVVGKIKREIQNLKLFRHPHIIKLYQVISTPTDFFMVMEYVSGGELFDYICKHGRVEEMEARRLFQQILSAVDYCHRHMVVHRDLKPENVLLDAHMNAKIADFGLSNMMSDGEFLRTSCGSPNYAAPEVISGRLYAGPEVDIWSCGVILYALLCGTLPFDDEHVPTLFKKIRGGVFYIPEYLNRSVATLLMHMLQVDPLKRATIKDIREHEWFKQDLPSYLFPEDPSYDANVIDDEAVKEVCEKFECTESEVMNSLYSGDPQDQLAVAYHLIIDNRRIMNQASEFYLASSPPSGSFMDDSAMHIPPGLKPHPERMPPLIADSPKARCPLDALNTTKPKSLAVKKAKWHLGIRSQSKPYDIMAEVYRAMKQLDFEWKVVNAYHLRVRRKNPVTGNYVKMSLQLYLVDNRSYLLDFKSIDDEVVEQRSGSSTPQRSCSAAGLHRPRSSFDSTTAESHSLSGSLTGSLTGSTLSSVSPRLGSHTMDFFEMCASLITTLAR
# [4] = test system: Macrophage colony-stimulating factor 1 receptor (Homo sapiens), P07333 [Y969C]; experiment: Inhibition of recombinant human Fms Y969C mutant (538 to end residues) at 1 uM using EEEEYEEEEEEYYIIEEEEEEYEEEEEEYYEEEEEEKKKK as substrate after 40 mins in presence of [gamma-33P]ATP by scintillation counting method
# Macrophage colony-stimulating factor 1 receptor (Homo sapiens), P07333 [Y969C], sequence (P07333 whole entry Y969C): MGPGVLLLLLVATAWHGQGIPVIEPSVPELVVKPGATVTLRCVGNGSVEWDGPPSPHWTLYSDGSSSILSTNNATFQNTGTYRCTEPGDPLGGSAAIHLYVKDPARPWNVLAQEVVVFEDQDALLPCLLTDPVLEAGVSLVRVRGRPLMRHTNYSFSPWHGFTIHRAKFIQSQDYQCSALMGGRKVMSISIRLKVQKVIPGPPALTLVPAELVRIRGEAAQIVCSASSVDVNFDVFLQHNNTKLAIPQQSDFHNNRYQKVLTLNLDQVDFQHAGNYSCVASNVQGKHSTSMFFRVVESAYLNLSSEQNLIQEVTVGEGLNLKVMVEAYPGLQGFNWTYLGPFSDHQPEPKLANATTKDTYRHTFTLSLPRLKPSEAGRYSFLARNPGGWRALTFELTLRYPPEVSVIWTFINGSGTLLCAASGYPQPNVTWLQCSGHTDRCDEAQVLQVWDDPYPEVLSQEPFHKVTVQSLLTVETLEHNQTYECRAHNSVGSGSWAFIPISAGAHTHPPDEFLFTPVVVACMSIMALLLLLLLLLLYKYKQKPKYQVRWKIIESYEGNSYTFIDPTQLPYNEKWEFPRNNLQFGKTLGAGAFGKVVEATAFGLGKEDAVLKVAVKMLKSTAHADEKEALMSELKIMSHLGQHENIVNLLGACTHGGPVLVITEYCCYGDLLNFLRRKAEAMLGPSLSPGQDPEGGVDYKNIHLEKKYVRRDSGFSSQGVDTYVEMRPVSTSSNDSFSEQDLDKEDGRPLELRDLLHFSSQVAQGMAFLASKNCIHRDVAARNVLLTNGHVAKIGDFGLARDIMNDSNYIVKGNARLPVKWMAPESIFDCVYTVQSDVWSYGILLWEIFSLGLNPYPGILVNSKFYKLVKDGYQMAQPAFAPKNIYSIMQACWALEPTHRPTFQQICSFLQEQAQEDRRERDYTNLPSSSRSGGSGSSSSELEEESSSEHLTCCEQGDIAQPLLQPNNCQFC
# [5] = molecular target: Serine/threonine-protein kinase 32C (Homo sapiens) (UniProt Q86UX6); experiment: Inhibition of recombinant full-length human STK32C at 1 uM using casein as substrate after 120 mins in presence of [gamma-33P]ATP by scintillation counting method
# [6] = molecular target: Tau-tubulin kinase 2 (Homo sapiens) (UniProt Q6IQ55); experiment: Inhibition of recombinant human TTBK2 (1 to 331 residues) at 1 uM using casein as substrate after 40 mins in presence of [gamma-33P]ATP by scintillation counting method
# [7] = molecular target: Aurora kinase A (Homo sapiens) (UniProt O14965); experiment: Inhibition of recombinant full-length human Aurora-A at 1 uM using LRRASLG (kemptide) as substrate after 40 mins in presence of [gamma-33P]ATP by scintillation counting method
# Aurora kinase A (Homo sapiens), sequence (O14965 whole entry): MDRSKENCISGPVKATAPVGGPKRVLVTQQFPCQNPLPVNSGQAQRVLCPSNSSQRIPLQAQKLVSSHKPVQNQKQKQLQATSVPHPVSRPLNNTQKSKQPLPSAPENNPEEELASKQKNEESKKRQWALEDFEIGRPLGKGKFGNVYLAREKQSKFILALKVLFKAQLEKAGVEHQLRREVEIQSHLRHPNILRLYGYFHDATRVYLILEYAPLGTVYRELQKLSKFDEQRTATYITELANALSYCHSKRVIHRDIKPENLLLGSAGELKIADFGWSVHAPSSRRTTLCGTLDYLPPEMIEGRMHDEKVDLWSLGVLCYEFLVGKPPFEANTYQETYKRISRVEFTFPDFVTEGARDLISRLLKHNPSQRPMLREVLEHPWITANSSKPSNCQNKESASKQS
# [8] = molecular target: Protein kinase C theta type (Homo sapiens) (UniProt Q04759); experiment: Inhibition of recombinant full-length human PKCtheta at 1 uM using histone H1 as substrate after 40 mins in presence of [gamma-33P]ATP by scintillation counting method
# Protein kinase C theta type (Homo sapiens), sequence (Q04759 whole entry, looked up): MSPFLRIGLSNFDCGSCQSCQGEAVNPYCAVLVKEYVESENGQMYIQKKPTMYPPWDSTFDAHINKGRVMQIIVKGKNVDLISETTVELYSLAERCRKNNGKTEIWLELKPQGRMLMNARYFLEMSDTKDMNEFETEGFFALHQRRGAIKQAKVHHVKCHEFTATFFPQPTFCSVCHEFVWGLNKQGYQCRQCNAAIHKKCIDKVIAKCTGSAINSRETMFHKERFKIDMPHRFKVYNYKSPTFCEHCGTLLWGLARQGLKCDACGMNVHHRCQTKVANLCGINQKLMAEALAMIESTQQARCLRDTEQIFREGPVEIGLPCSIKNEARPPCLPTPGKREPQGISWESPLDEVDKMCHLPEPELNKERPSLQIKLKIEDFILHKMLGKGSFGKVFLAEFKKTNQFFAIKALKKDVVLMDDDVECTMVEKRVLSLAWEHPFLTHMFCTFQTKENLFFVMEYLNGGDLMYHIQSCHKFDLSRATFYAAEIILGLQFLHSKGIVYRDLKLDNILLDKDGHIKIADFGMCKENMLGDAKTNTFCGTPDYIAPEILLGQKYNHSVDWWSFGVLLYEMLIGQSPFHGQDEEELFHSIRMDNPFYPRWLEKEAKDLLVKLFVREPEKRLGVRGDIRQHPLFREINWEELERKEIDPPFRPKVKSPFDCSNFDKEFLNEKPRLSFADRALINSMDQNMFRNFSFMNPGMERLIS
# [9] = molecular target: Serine/threonine-protein kinase pim-3 (Homo sapiens) (UniProt Q86V86); experiment: Inhibition of recombinant human PIM3 (2 to end residues) at 1 uM using RSRHSSYPAGT as substrate after 40 mins in presence of [gamma-33P]ATP by scintillation counting method
# [10] = molecular target: Tyrosine-protein kinase JAK2 (Homo sapiens) (UniProt O60674); experiment: Inhibition of recombinant human JAK2 (808 to end residues) at 1 uM using KTFCGTPEYLAPEVRREPRILSEEEQEMFRDFDYIADWC as substrate after 40 mins in presence of [gamma-33P]ATP by scintillation counting method
# [11] = molecular target: Tyrosine-protein kinase JAK3 (Homo sapiens) (UniProt P52333); experiment: Inhibition of recombinant human JAK3 (781 to end residues) at 1 uM using GGEEEEYFELVKKKK as substrate after 40 mins in presence of [gamma-33P]ATP by scintillation counting method
# [12] = test system: Fibroblast growth factor receptor 2 (Homo sapiens), P21802 [N549H]; experiment: Inhibition of recombinant human FGFR2 N549H mutant (456 to 770 residues) at 1 uM using GGEEEEYFELVKKKK as substrate after 40 mins in presence of [gamma-33P]ATP by scintillation counting method
# Fibroblast growth factor receptor 2 (Homo sapiens), P21802 [N549H], sequence (P21802 whole entry N549H, the tested form may be a part): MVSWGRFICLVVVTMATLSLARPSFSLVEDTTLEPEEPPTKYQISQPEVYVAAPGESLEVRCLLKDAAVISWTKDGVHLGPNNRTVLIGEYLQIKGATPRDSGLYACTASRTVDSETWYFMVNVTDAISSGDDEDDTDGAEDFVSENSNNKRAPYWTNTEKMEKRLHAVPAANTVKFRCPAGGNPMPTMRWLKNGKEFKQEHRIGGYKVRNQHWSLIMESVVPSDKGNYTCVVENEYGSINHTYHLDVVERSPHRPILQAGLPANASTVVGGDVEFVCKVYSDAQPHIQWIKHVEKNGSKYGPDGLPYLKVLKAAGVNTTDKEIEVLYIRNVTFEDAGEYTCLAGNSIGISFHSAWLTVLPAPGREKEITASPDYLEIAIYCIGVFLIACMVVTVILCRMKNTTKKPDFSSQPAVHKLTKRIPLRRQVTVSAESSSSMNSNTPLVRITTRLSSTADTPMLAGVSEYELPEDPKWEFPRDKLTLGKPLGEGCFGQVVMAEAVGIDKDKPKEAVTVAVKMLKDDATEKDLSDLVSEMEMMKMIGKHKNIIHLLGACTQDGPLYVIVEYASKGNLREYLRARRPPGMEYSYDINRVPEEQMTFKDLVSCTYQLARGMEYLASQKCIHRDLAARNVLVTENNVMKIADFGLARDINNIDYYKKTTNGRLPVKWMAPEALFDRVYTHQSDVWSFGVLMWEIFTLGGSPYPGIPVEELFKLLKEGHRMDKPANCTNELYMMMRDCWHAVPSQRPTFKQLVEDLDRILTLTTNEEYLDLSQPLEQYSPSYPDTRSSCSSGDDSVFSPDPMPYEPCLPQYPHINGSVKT
# [13] = molecular target: NUAK family SNF1-like kinase 2 (Homo sapiens) (UniProt Q9H093); experiment: Inhibition of recombinant full-length human NUAK2 at 1 uM using KKKVSRSGLYRSPSMPENLNRPR as substrate after 40 mins in presence of [gamma-33P]ATP by scintillation counting method
# [14] = test system: Tyrosine-protein kinase ABL1 (Homo sapiens), P00519 [Q252H]; experiment: Inhibition of recombinant human Abl Q252H mutant (27 to end residues) at 1 uM using EAIYAAPFAKKK as substrate after 40 mins in presence of [gamma-33P]ATP by scintillation counting method
# [15] = molecular target: Dual specificity tyrosine-phosphorylation-regulated kinase 3 (Homo sapiens) (UniProt O43781); experiment: Inhibition of recombinant full-length human DYRK3 at 1 uM using RRRFRPASPLRGPPK as substrate after 40 mins in presence of [gamma-33P]ATP by scintillation counting method
# [16] = molecular target: DNA-dependent protein kinase catalytic subunit (Homo sapiens) (UniProt P78527); experiment: Inhibition of recombinant full-length human DNA-PK at 1 uM using GST-cMyc-p53 as substrate after 40 mins in presence of [gamma-33P]ATP by scintillation counting method
# [17] = molecular target: Serine/threonine-protein kinase ULK1 (Homo sapiens) (UniProt O75385); experiment: Inhibition of recombinant human ULK1 (1 to 314 residues) at 1 uM using casein as substrate after 40 mins in presence of [gamma-33P]ATP by scintillation counting method
# [18] = molecular target: Dual specificity tyrosine-phosphorylation-regulated kinase 1A (Homo sapiens) (UniProt Q13627); experiment: Inhibition of recombinant full-length human DYRK1A at 1 uM using RRRFRPASPLRGPPK as substrate after 40 mins in presence of [gamma-33P]ATP by scintillation counting method
# [19] = molecular target: Serine/threonine-protein kinase PAK 1 (Homo sapiens) (UniProt Q13153); experiment: Inhibition of recombinant human PAK1 (150 to end residues) at 1 uM using RRRLSFAEPG as substrate after 40 mins in presence of [gamma-33P]ATP by scintillation counting method
# [20] = test system: Receptor-type tyrosine-protein kinase FLT3 (Homo sapiens), P36888 [D835Y]; experiment: Inhibition of recombinant human Flt3 D835Y mutant (564 to end residues) at 1 uM using EAIYAAPFAKKK as substrate after 40 mins in presence of [gamma-33P]ATP by scintillation counting method
# [21] = molecular target: Proto-oncogene tyrosine-protein kinase Src (Homo sapiens) (UniProt P12931); experiment: Inhibition of recombinant human Src (1 to 530 residues) at 1 uM using GGEEEEYFELVKKKK as substrate after 40 mins in presence of [gamma-33P]ATP by scintillation counting method
# [22] = molecular target: Testis-specific serine/threonine-protein kinase 4 (Homo sapiens) (UniProt Q6SA08); experiment: Inhibition of recombinant full-length human TSSK4 at 1 uM using KKLNRTLSFAEPG as substrate after 40 mins in presence of [gamma-33P]ATP by scintillation counting method
# [23] = molecular target: Non-receptor tyrosine-protein kinase TYK2 (Homo sapiens) (UniProt P29597); experiment: Inhibition of recombinant human TYK2 (875 to end residues) at 1 uM using GGMEDIYFEFMGGKKK as substrate after 40 mins in presence of [gamma-33P]ATP by scintillation counting method
# Serine/threonine-protein kinase PAK 4 (Homo sapiens), sequence (O96013 whole entry, looked up): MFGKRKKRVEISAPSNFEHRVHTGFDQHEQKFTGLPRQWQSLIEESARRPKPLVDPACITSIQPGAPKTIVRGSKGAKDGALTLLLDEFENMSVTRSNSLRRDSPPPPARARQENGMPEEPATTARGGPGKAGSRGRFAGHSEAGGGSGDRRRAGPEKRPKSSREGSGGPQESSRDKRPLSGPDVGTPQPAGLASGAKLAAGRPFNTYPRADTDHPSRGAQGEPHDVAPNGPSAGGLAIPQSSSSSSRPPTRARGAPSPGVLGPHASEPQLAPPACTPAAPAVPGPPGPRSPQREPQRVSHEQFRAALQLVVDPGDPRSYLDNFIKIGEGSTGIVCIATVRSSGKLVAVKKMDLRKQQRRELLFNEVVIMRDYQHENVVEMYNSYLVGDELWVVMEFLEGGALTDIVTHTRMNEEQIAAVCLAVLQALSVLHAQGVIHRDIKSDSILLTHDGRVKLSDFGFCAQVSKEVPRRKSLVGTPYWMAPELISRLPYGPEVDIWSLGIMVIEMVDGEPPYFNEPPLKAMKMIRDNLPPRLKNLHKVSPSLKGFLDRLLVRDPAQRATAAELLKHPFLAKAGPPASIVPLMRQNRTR
structure (smiles),measurement,setting,value
CS(=O)(=O)c1ccc(-n2nc(-c3cnc4[nH]ccc4c3)c3c(N)ncnc32)cc1,inhibition,[1],45%
same,inhibition,[2],-1%
same,inhibition,[3],-9%
same,inhibition,[4],69%
same,inhibition,[5],5%
same,inhibition,[6],4%
same,inhibition,[7],15%
same,inhibition,[8],5%
same,inhibition,[9],-1%
same,inhibition,[10],5%
same,inhibition,[11],4%
same,inhibition,[12],70%
same,inhibition,[13],18%
same,inhibition,[14],70%
same,inhibition,[15],-10%
same,inhibition,[16],59%
same,inhibition,[17],-1%
same,inhibition,[18],-6%
same,inhibition,[19],4%
same,inhibition,[20],37%
same,inhibition,[21],64%
same,inhibition,[22],-10%
same,inhibition,[23],8%
